Measured values from US5387409A, “Boronic acid adducts of rhenium dioxime and technetium-99m dioxime complexes containing a biochemically active group” (Bracco International B.V., priority 1992, dated 1995).

Legend:
[1] = tested on: xanthine oxidase; assay: Enzyme assay: xanthine oxidase reduction (disappearance of the nitro compound, UV/Visible 326 nm); format: biochemical
Description: The nitroimidazole boronic acids in this invention were examined in an assay using the enzyme xanthine oxidase. […] All reagents were degassed prior to mixing by passage of argon over the surface for 20 minutes. Loss of the nitro group (an indication of reduction) was monitored every 5 minutes using a UV/Visible spectrophotometer set at 326 nm. The half-lives of disappearance of the nitro compounds were determined by plotting log (concentration) mmole/ml vs time for all compounds studied.

[2] = Electrochemical peak potential (cathodic) in water vs. saturated calomel electrode; format: physicochemical; conditions: cathodic peak potential in water vs. saturated calomel electrode (Table 3)
[3] = Cyclic voltammetry in DMF (peak potential vs. Ag/AgNO3); format: physicochemical; conditions: for Epc(DMF): cathodic peak potential in DMF vs. Ag/AgNO3 (Table 3); for Peak Potential (EP), Nitro-base Anodic / Peak Potential (EP), Nitro-base Cathodic: DMF, scan rate = 100 mV/sec, Ag/AgNO3 reference (Table 2)
[4] = Biodistribution: lung uptake of amine-containing 99mTc (BATO) complexes in rats; format: in vivo; conditions: I.V.
Description: Biodistribution Results for Amine-substituted Boron complexes, ^99m Tc(chloride)(dimethylglyoxime)3 B-R (wherein R is or contains an amine)
The other complexes listed were prepared using the methodology described in Example 2. Lung uptake at 5 and 60 minutes post I.V. administration of these compounds was noted.

[5] = tested on: estrogen receptor; assay: In vitro estrogen receptor binding studies, cytosolic preparations of isolated rat uteri; conditions: rat uteri cytosol; preparations with specific activity from 400 to 2000 Ci/mmol
[6] = hypoxanthine, pH 7.4, 0.25 μMoles nitro compound

| Compound | half life (enzyme assay) [1, 6] | Epc(Aqueous) [2] | Epc(DMF) [3] | Peak Potential (EP), Nitro-base Anodic [3] | Peak Potential (EP), Nitro-base Cathodic [3] | other results |
| --- | --- | --- | --- | --- | --- | --- |
| O=[N+]([O-])c1cn(Cc2ccc(B(O)O)cc2)cn1 [BB4NO2, 1-(4-Nitroimidazole)-benzylboronic acid] | 95 min | -0.50 V | -1.80 V | – | – | – |
| O=[N+]([O-])c1nccn1Cc1ccc(B(O)O)cc1 [BBNO2, 1-(2-Nitroimidazoyl)benzylboronic acid] | 11 min | – | – | – | – | – |
| COCC(O)Cn1ccnc1[N+](=O)[O-] (stereo not drawn) [Misonidazole, reference compound] | 45 min | -0.33 V | -1.49 V | -1.43 | -1.51 | – |
| ^99 Tc(chlorine)(1,2-cyclohexanedione dioxime)3 1-(2-nitroimidazoyl)benzyl boron [Complex of Example 13] | – | – | – | -1.50 | -1.56 | – |
| ^99 Tc(chlorine)(dimethylglyoxime)3 -1-(2-nitroimidazoyl)benzylboron [Complex of Example 15] | – | – | – | -1.51 | -1.58 | – |
| ^99m Tc(chloride)(dimethylglyoxime)3 [4-[2-[(1-methylethyl)amino]propyl]phenyl]boron | – | – | – | – | – | % Injected Dose in Lungs, 5 min. P.I. ([4]; 5 min. post-injection): 3.25 % Injected Dose; % Injected Dose in Lungs, 60 min. P.I. ([4]; 60 min. post-injection): 2.19 % Injected Dose |
| ^99m/99 Tc(chloride)(dimethylglyoxime)3 (estradiol boron) [technetium labeled estradiol] | – | – | – | – | – | specific binding [5]: 10-30 % of the total bound activity |

Continued, in another order:

| half life (enzyme assay) [1, 6] | Epc(Aqueous) [2] | Epc(DMF) [3] | Compound | Peak Potential (EP), Nitro-base Anodic [3] | Peak Potential (EP), Nitro-base Cathodic [3] | other results |
| --- | --- | --- | --- | --- | --- | --- |
| 42.5 min | -0.30 V | -1.53 V | O=[N+]([O-])c1nccn1CCc1ccc(B(O)O)cc1 [BPhEtNO2, 4-(2-Nitroimidazolylethyl)phenyl boronic acid] | – | – | – |
| 24 min | -0.30 V | -1.56 V | O=[N+]([O-])c1nccn1CC=CB(O)O [BPropeneNO2, 2-Nitroimidazolyl-N1-[2-propenyl]-3-boronic acid] | – | – | – |
| – | -0.46 V | -1.62 V | Cc1ncc([N+](=O)[O-])n1CCO [Metronidazole, reference compound] | -1.55 | -1.63 | half life (enzyme assay) ([1]; pH 7.4): > 1440 min |
